Experimental data taken from patent US20250002487A1, “HETEROCYCLIC COMPOUNDS AND USES THEREOF” (Ventus Therapeutics U.S., Inc., priority 2021, published 2025).
pIC50: −log10 of the molar value.

target: human-cGAS (h-cGAS) (Homo sapiens, UniProt Q8N884); assay: hcGAS Kinase-Glo Assay; assay type: biochemical; conditions: 40 nM h-cGAS, 100 μM ATP, 100 μM GTP, 25 nM dsDNA, 3 h incubation, read-out: hcGAS potency IC50
Summary of the method: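 Kinase-Glo luminescent read-out of human cGAS activity, following the published Lama et al. (2019) protocol with slightly altered conditions. Inhibition reported as IC50.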

Chain of human-cGAS (h-cGAS) (Q8N884 whole entry): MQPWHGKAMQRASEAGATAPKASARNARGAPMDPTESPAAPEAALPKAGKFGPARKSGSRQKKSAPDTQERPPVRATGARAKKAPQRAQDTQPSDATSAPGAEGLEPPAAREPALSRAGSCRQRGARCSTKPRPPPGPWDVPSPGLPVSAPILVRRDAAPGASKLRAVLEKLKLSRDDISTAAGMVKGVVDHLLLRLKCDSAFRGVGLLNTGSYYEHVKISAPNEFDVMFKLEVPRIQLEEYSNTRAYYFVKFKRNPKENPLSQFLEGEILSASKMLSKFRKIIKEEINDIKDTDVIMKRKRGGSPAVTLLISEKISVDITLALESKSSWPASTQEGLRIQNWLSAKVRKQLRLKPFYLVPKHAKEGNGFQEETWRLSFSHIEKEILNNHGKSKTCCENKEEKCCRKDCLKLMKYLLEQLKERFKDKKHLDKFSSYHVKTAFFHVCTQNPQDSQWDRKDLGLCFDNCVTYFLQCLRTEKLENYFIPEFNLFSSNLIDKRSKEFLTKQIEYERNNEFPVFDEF

**Q.** With `Cn1nccc1-c1nnc(NC(=O)c2onc3ccccc23)s1` [Compound 146, N-(5-(1-methyl-1H-pyrazol-5-yl)-1,3,4-thiadiazol-2-yl)benzo[c]isoxazole-3-carboxamide] as the molecule, how does the pIC50 read?
**A.** Its pIC50 is at most 6.00.

**Q.** How did the pIC50 turn out when `O=C(Nc1nnc(-c2ccccc2C(F)F)s1)c1onc2ccccc12` [Compound 147, N-(5-(2-(difluoromethyl)phenyl)-1,3,4-thiadiazol-2-yl)benzo[c]isoxazole-3-carboxamide] was run?
**A.** The pIC50 was 6.00 to 6.30.

**Q.** With `O=C(Nc1nnc(-c2ncccn2)s1)c1onc2ccccc12` [Compound 148, N-(5-(pyrimidin-2-yl)-1,3,4-thiadiazol-2-yl)benzo[c]isoxazole-3-carboxamide] as the molecule, how does the pIC50 read?
**A.** Its pIC50 is at most 6.00.

**Q.** With `CSc1nnc(NC(=O)c2nnc(N3CCCCC3c3ccccc3)o2)s1` (stereo not shown) [Compound 149, N-(5-(methylthio)-1,3,4-thiadiazol-2-yl)-5-(2-phenylpiperidin-1-yl)-1,3,4-oxadiazole-2-carboxamide] as the molecule, how does the pIC50 read?
**A.** The pIC50 was 6.00 to 6.30.

**Q.** With `CSc1nnc(NC(=O)c2cc(-c3nccc4ccccc34)no2)s1` [Compound 150, 3-(Isoquinolin-1-yl)-N-(5-(methylthio)-1,3,4-thiadiazol-2-yl)isoxazole-5-carboxamide] as the molecule, how does the pIC50 read?
**A.** The pIC50 was 6.00 to 6.30.

**Q.** `CSc1nnc(NC(=O)c2cc(-c3cccc(F)c3F)no2)s1` [Compound 151, 3-(2,3-Difluorophenyl)-N-(5-(methylthio)-1,3,4-thiadiazol-2-yl)isoxazole-5-carboxamide] was tested. Which pIC50 did it give?
**A.** The pIC50 was 6.00 to 6.30.

**Q.** With `CSc1nnc(NC(=O)c2cc(-c3ncccn3)no2)s1` [Compound 152, N-(5-(Methylthio)-1,3,4-thiadiazol-2-yl)-3-(pyrimidin-2-yl)isoxazole-5-carboxamide] as the molecule, how does the pIC50 read?
**A.** Its pIC50 is 6.30 to 7.00.

**Q.** With `CSc1nnc(NC(=O)c2cc(-c3ncc4ccccc4n3)no2)s1` [Compound 153, N-(5-(Methylthio)-1,3,4-thiadiazol-2-yl)-3-(quinazolin-2-yl)isoxazole-5-carboxamide] as the molecule, how does the pIC50 read?
**A.** Its pIC50 is 6.30 to 7.00.

**Q.** With `O=C(Nc1nnc(-c2ccccc2Cl)s1)c1cc(-c2ncccn2)no1` [Compound 154, N-(5-(2-Chlorophenyl)-1,3,4-thiadiazol-2-yl)-3-(pyrimidin-2-yl)isoxazole-5-carboxamide] as the molecule, how does the pIC50 read?
**A.** Its pIC50 is 6.30 to 7.00.

**Q.** `O=C(Nc1nnc(-c2ccccc2Cl)s1)c1cc(-c2ncc3ccccc3n2)no1` [Compound 155, N-(5-(2-Chlorophenyl)-1,3,4-thiadiazol-2-yl)-3-(quinazolin-2-yl)isoxazole-5-carboxamide] was tested. Which pIC50 did it give?
**A.** Its pIC50 is 6.30 to 7.00.

**Q.** How did the pIC50 turn out when `O=C(Nc1nnc(-c2ccccc2Cl)s1)c1cc(-c2ncc(F)cn2)no1` [Compound 156, N-(5-(2-Chlorophenyl)-1,3,4-thiadiazol-2-yl)-3-(5-fluoropyrimidin-2-yl)isoxazole-5-carboxamide] was run?
**A.** Its pIC50 is 6.30 to 7.00.

**Q.** How did the pIC50 turn out when `Cc1ccnc(-c2cc(C(=O)Nc3nnc(-c4ccccc4Cl)s3)on2)n1` [Compound 157, N-(5-(2-Chlorophenyl)-1,3,4-thiadiazol-2-yl)-3-(4-methylpyrimidin-2-yl)isoxazole-5-carboxamide] was run?
**A.** Its pIC50 is 6.30 to 7.00.

**Q.** `Cc1cnc(-c2cc(C(=O)Nc3nnc(-c4ccccc4Cl)s3)on2)nc1` [Compound 158, N-(5-(2-Chlorophenyl)-1,3,4-thiadiazol-2-yl)-3-(5-methylpyrimidin-2-yl)isoxazole-5-carboxamide] was tested. Which pIC50 did it give?
**A.** The pIC50 was 6.30 to 7.00.

**Q.** With `CSc1nnc(NC(=O)c2onc3ccc(Cc4ccccc4)cc23)s1` [Compound 159, 5-Benzyl-N-(5-(methylthio)-1,3,4-thiadiazol-2-yl)benzo[c]isoxazole-3-carboxamide] as the molecule, how does the pIC50 read?
**A.** The pIC50 was 6.00 to 6.30.

**Q.** With `COc1ccc(Cc2ccc3noc(C(=O)Nc4nnc(SC)s4)c3c2)cc1` [Compound 160, 5-(4-Methoxybenzyl)-N-(5-(methylthio)-1,3,4-thiadiazol-2-yl)benzo[c]isoxazole-3-carboxamide] as the molecule, how does the pIC50 read?
**A.** Its pIC50 is 6.00 to 6.30.

**Q.** How did the pIC50 turn out when `COc1cccc(Cc2ccc3noc(C(=O)Nc4nnc(SC)s4)c3c2)c1` [Compound 161, 5-(3-methoxybenzyl)-N-(5-(methylthio)-1,3,4-thiadiazol-2-yl)benzo[c]isoxazole-3-carboxamide] was run?
**A.** Its pIC50 is 6.00 to 6.30.

**Q.** With `CSc1nnc(NC(=O)c2onc3ccc(Nc4ccccc4)cc23)s1` [Compound 162, N-(5-(methylthio)-1,3,4-thiadiazol-2-yl)-5-(phenylamino)benzo[c]isoxazole-3-carboxamide] as the molecule, how does the pIC50 read?
**A.** The pIC50 was 6.00 to 6.30.

**Q.** `CSc1nnc(NC(=O)c2onc3ccc(Sc4ccccc4)cc23)s1` [Compound 163, N-(5-(methylthio)-1,3,4-thiadiazol-2-yl)-5-(phenylthio)benzo[c]isoxazole-3-carboxamide] was tested. Which pIC50 did it give?
**A.** The pIC50 was at most 6.00.

**Q.** How did the pIC50 turn out when `CSc1nnc(NC(=O)c2onc3ccc(S(=O)(=O)c4ccccc4)cc23)s1` [Compound 164, N-(5-(methylthio)-1,3,4-thiadiazol-2-yl)-5-(phenylsulfonyl)benzo[c]isoxazole-3 carboxamide] was run?
**A.** Its pIC50 is 6.00 to 6.30.

**Q.** How did the pIC50 turn out when `CSc1nnc(NC(=O)c2onc3ccc(Oc4ccccc4)cc23)s1` [Compound 165, N-(5-(methylthio)-1,3,4-thiadiazol-2-yl)-5-phenoxybenzo[c]isoxazole-3-carboxamide] was run?
**A.** Its pIC50 is 6.00 to 6.30.

**Q.** `CSc1nnc(NC(=O)c2onc3ccc(C(O)c4ccccc4)cc23)s1` (stereo not shown) [Compound 166, 5-(hydroxy(phenyl)methyl)-N-(5-(methylthio)-1,3,4-thiadiazol-2-yl)benzo[c]isoxazole-3-carboxamide] was tested. Which pIC50 did it give?
**A.** Its pIC50 is at most 6.00.

**Q.** How did the pIC50 turn out when `CSc1nnc(NC(=O)c2onc3ccc(C(=O)c4ccccc4)cc23)s1` [Compound 167, 5-benzoyl-N-(5-(methylthio)-1,3,4-thiadiazol-2-yl)benzo[c]isoxazole-3-carboxamide] was run?
**A.** Its pIC50 is at most 6.00.

**Q.** With `CSc1nnc(NC(=O)c2onc3c(CO)cccc23)s1` [Compound 168, 7-(hydroxymethyl)-N-(5-(methylthio)-1,3,4-thiadiazol-2-yl)benzo[c]isoxazole-3-carboxamide] as the molecule, how does the pIC50 read?
**A.** Its pIC50 is 6.00 to 6.30.

**Q.** `COCCc1cc(C(=O)Nc2nnc(-c3ccccc3Cl)s2)on1` [Compound 169, N-(5-(2-chlorophenyl)-1,3,4-thiadiazol-2-yl)-3-(2-methoxyethyl)isoxazole-5-carboxamide] was tested. Which pIC50 did it give?
**A.** The pIC50 was over 7.00.

**Q.** `COCc1cc(C(=O)Nc2nnc(-c3ccccc3Cl)s2)on1` [Compound 170, N-(5-(2-chlorophenyl)-1,3,4-thiadiazol-2-yl)-3-(methoxymethyl)isoxazole-5-carboxamide] was tested. Which pIC50 did it give?
**A.** Its pIC50 is 6.30 to 7.00.

**Q.** `CSc1nnc(NC(=O)c2onc3c2CCc2scnc2-3)s1` [Compound 171, N-(5-(methylthio)-1,3,4-thiadiazol-2-yl)-4,5-dihydrothiazolo[5′,4′:5,6]benzo[1,2-c]isoxazole-3-carboxamide] was tested. Which pIC50 did it give?
**A.** The pIC50 was at most 6.00.

**Q.** With `COc1cccc2c1CCc1c-2noc1C(=O)Nc1nnc(SC)s1` [Compound 172, 6-Methoxy-N-(5-(methylthio)-1,3,4-thiadiazol-2-yl)-4,5-dihydronaphtho[1,2-c]isoxazole-3-carboxamide] as the molecule, how does the pIC50 read?
**A.** The pIC50 was at most 6.00.

**Q.** How did the pIC50 turn out when `CSc1nnc(NC(=O)c2onc3c2CCc2cccnc2-3)s1` [Compound 173, N-(5-(Methylthio)-1,3,4-thiadiazol-2-yl)-4,5-dihydroisoxazolo[4,3-h]quinoline-3-carboxamide] was run?
**A.** The pIC50 was 6.00 to 6.30.

**Q.** With `CSc1nnc(NC(=O)c2onc3c2CCc2cnc(C)nc2-3)s1` [Compound 174, 8-Methyl-N-(5-(methylthio)-1,3,4-thiadiazol-2-yl)-4,5-dihydroisoxazolo[4,3-h]quinazoline-3-carboxamide] as the molecule, how does the pIC50 read?
**A.** Its pIC50 is at most 6.00.

**Q.** How did the pIC50 turn out when `COCCOc1cc(C(=O)Nc2nnc(-c3ccccc3Cl)s2)on1` [Compound 175, N-(5-(2-chlorophenyl)-1,3,4-thiadiazol-2-yl)-3-(2-methoxyethoxy)isoxazole-5-carboxamide] was run?
**A.** Its pIC50 is 6.30 to 7.00.

**Q.** `CSc1nnc(NC(=O)c2cc(-c3ccccc3-c3ccc(CC(=O)O)cc3)cc(=O)o2)s1` [Compound 176] was tested. Which pIC50 did it give?
**A.** Its pIC50 is 6.00 to 6.30.

**Q.** `CSc1nnc(NC(=O)c2cc(-c3ccccc3-c3cccc(CC(=O)O)c3)cc(=O)o2)s1` [Compound 177, 2-(2′-(6-((5-(methylthio)-1,3,4-thiadiazol-2-yl)carbamoyl)-2-oxo-2H-pyran-4-yl)-[1,1′-biphenyl]-3-yl)acetic acid] was tested. Which pIC50 did it give?
**A.** The pIC50 was 6.00 to 6.30.

**Q.** How did the pIC50 turn out when `O=C(Nc1nnc(-c2ccccc2Cl)s1)c1onc2c(C(=O)O)cccc12` [Compound 178, 3-((5-(2-chlorophenyl)-1,3,4-thiadiazol-2-yl)carbamoyl)benzo[c]isoxazole-7-carboxylic acid] was run?
**A.** The pIC50 was over 7.00.

**Q.** With `O=C(Nc1nnc(-c2ccccc2Cl)s1)c1cc(CCO)no1` [Compound 179, N-(5-(2-chlorophenyl)-1,3,4-thiadiazol-2-yl)-3-(2-hydroxyethyl)isoxazole-5-carboxamide] as the molecule, how does the pIC50 read?
**A.** Its pIC50 is 6.30 to 7.00.

**Q.** How did the pIC50 turn out when `CSc1nnc(NC(=O)c2noc3c2CCc2cccnc2-3)s1` [Compound 180, N-(5-(methylthio)-1,3,4-thiadiazol-2-yl)-4,5-dihydroisoxazolo[4,5-h]quinoline-3-carboxamide] was run?
**A.** Its pIC50 is 6.00 to 6.30.

**Q.** With `CSc1nnc(NC(=O)c2onc3c2CCc2sc(C)nc2-3)s1` [Compound 181, 7-methyl-N-(5-(methylthio)-1,3,4-thiadiazol-2-yl)-4,5-dihydrothiazolo[5′,4′:5,6]benzo[1,2-c]isoxazole-3-carboxamide] as the molecule, how does the pIC50 read?
**A.** Its pIC50 is 6.00 to 6.30.

**Q.** `CSc1nnc(NC(=O)c2cc(-c3ccccc3-c3ccccc3)cc(=O)o2)s1` [Compound 182, 4-([1,1′-biphenyl]-2-yl)-N-(5-(methylthio)-1,3,4-thiadiazol-2-yl)-2-oxo-2H-pyran-6-carboxamide] was tested. Which pIC50 did it give?
**A.** The pIC50 was 6.00 to 6.30.

**Q.** How did the pIC50 turn out when `CSc1nnc(NC(=O)c2onc3ccc(Cn4cc(C(=O)O)c(=O)c5ccccc54)cc23)s1` [Compound 184, 1-((3-((5-(Methylthio)-1,3,4-thiadiazol-2-yl)carbamoyl)benzo[c]isoxazol-5-yl)methyl)-4-oxo-1,4-dihydroquinoline-3-carboxylic acid] was run?
**A.** Its pIC50 is at most 6.00.

**Q.** How did the pIC50 turn out when `CSc1nnc(NC(=O)c2onc3ccc(Cc4ccc5c(c4)OCO5)cc23)s1` [Compound 185, 5-(Benzo[d][1,3]dioxol-5-ylmethyl)-N-(5-(methylthio)-1,3,4-thiadiazol-2-yl)benzo[c]isoxazole-3-carboxamide] was run?
**A.** Its pIC50 is at most 6.00.

**Q.** How did the pIC50 turn out when `CSc1nnc(NC(=O)c2onc3ccc(Cc4ccc(O)c(O)c4)cc23)s1` [Compound 186, 5-(3,4-Dihydroxybenzyl)-N-(5-(methylthio)-1,3,4-thiadiazol-2-yl)benzo[c]isoxazole-3-carboxamide] was run?
**A.** The pIC50 was 6.00 to 6.30.
